Results published in patent publication US8722863B2, “Solid state forms of fidaxomycin and processes for preparation thereof” (Teva Pharmaceutical Works Ltd., priority 2012, dated 2014).

Columns and labels:
[1] = stability under extreme conditions; format: physicochemical
Source text: As discussed above, Form C of Fidaxomycin has advantageous properties. In particular, Form C of Fidaxomycin of the present invention can be reproduced in a high quality, i.e., chemical and polymorphical purity. The X-ray powder diffraction pattern of Form C is obtained in high crystallinity, as indicated by a high resolution PXRD pattern with relatively sharp, defined peaks. In addition, Form C is stable under extreme conditions.

[2] = system: Clostridium difficile; details: cited from earlier work
[3] = hygroscopicity test according to the European pharmacopeia 5.11; format: physicochemical; details: Ph. Eur. chapter 5.11 hygroscopicity test
Source text: As used herein and unless indicated otherwise, the term “non-hygroscopic” in relation to crystalline Fidaxomycin refers to less than 0.5%, and preferably less than 0.2% (w/w) absorption of water, for example atmospheric water, by the crystalline Fidaxomycin, as determined according to Ph. Eur. chapter 5.11 (“Hygroscopicity”).
As discussed above, Fidaxomycin Form Z1 has advantageous properties. In particular, the crystalline Fidaxomycin Form Z1 of the present invention is non-hygroscopic. When performing the hygroscopicity test according to the European pharmacopeia 5.11, the mass increase of Form Z1 was below about 0.2%. The advantageous of form Z1 as non-hygroscopic material provides better processing of Fidaxomycin in formulation. e.g., being less sticky and stable following granulation procedure.

[4] = stability in formulations; format: physicochemical; details: retains the anhydrous polymorph
Source text: The ability to retain the anhydrous polymorph provides an opportunity to improve the performance characteristic in formulation e.g. dissolution profile and bioavailability.

With CCc1c(Cl)c(O)c(Cl)c(O)c1C(=O)O[C@H]1[C@H](O)[C@H](OC)[C@H](OC/C2=C\C=C\C[C@H](O)/C(C)=C/[C@H](CC)[C@@H](O[C@@H]3OC(C)(C)[C@@H](OC(=O)C(C)C)[C@H](O)[C@@H]3O)/C(C)=C/C(C)=C/C[C@@H]([C@@H](C)O)OC2=O)O[C@@H]1C [Form C] the “stability under extreme conditions” value [1] was “stable”.
In the case of CCc1c(Cl)c(O)c(Cl)c(O)c1C(=O)O[C@H]1[C@H](O)[C@H](OC)[C@H](OC/C2=C\C=C\C[C@H](O)/C(C)=C/[C@H](CC)[C@@H](O[C@@H]3OC(C)(C)[C@@H](OC(=O)C(C)C)[C@H](O)[C@@H]3O)/C(C)=C/C(C)=C/C[C@@H]([C@@H](C)O)OC2=O)O[C@@H]1C [Fidaxomycin, 3-(((6-Deoxy-4-O-(3,5-dichloro-2-ethyl-4,6-dihydroxybenzoyl)-2-O-methyl-β-D-mannopyranosyl)oxy)-methyl)-12(R)-[(6-deoxy-5-C-methyl-4-O-(2-methyl-1-oxopropyl)-b-D-lyxo-hexopyranosyl)oxy]-11(S)-ethyl-8(S)-hydroxy-18(S)-(1(R)-hydroxyethyl)-9,13,15-trimethyloxacyclooctadeca-3,5,9,13,15-pentaene-2-one], the “activity against Clostridium difficile” value [2] is given as “shows activity”.
For CCc1c(Cl)c(O)c(Cl)c(O)c1C(=O)O[C@H]1[C@H](O)[C@H](OC)[C@H](OC/C2=C\C=C\C[C@H](O)/C(C)=C/[C@H](CC)[C@@H](O[C@@H]3OC(C)(C)[C@@H](OC(=O)C(C)C)[C@H](O)[C@@H]3O)/C(C)=C/C(C)=C/C[C@@H]([C@@H](C)O)OC2=O)O[C@@H]1C [Form Z1], the “mass increase (hygroscopicity)” value [3] was “below 0.2%” and the stability in formulations [4] was “excellent stability”.
